In patent US20250313560A1, “Novel bicyclic benzylamido pyridine derivatives as SOS1 inhibitors” (Boehringer Ingelheim International GmbH, priority 2024, published 2025):
pIC50: −log10 of the molar value. Where two headings read alike, the source gives them in different places.

Key:
SOS1 and KRAS G12D = SOS1 and KRAS G12D (Homo sapiens (Human), UniProt Q07889); test: KRAS::SOS1 AlphaScreen binding assay (KRAS G12D); conditions: average of at least two measurements
human hepatocytes = test: Metabolic stability in human hepatocytes; conditions: 1 μM test compound, 50% human serum, percentage of liver blood flow
SOS1 and KRAS G12C = SOS1 and KRAS G12C (Homo sapiens (Human), UniProt Q07889); test: KRAS::SOS1 AlphaScreen binding assay (KRAS G12C); conditions: average of at least two measurements
CYP3A4 = CYP3A4 (Homo sapiens (Human), UniProt P08684); test: Mechanism-based inhibition of CYP3A4 assay (MBI 3A4); type: in vitro ADME; conditions: human liver microsomes, midazolam substrate, hydroxy-midazolam formation after 30 min preincubation relative to 0 min; for inhibition at 30 min: human, probe midazolam 15 μM (hydroxy-midazolam formation), read-out: MBI inhibition % ctrl. [%] with MDZ
How it was run: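 Human liver microsomes (0.2 mg/mL) were preincubated with compound at 0, 5 or 25 μM plus 1 mM NADPH for 0, 10 or 30 min, then diluted 1:10 and incubated 10 min with 15 μM midazolam. Hydroxy-midazolam was measured by LC/MS-MS; readout is formation after 30 min relative to 0 min preincubation (%).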

P450 3A4 = P450 3A4 (Homo sapiens (Human), UniProt P08684); test: Cytochrome P450 isoenzyme inhibition assay (P450 3A4, midazolam); type: in vitro ADME; conditions: human liver microsomes, Midazolam as substrate; read-out: CYP3A4 inhibition IC50
How it was run: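 Midazolam (5 μM) hydroxylation by human liver microsomes (0.1 mg/ml) in 0.1 M TRIS with 5 mM MgCl2, started with 1 mM NADPH. Five compound concentrations in duplicate, e.g. top 50 μM with 1:4 dilutions. Metabolite quantified by LC-MS/MS against internal standard; IC50 from inhibition relative to no-compound control.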

[1] = tested on: ERK phosphorylation in NCI-H358 SOS2 KO cells (KRAS G12C); test: Erk phosphorylation assay; type: cell-based, human; conditions: EGF stimulated, average of at least two measurements, read-out: pERK IC50
How it was run: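 NCI-H358 SOS2 KO cells (KRAS G12C) in DMEM/2% FBS were pretreated 50 min with compound, then stimulated with EGF (approx. 8 ng/mL) for 10-15 min. pERK1/2 (Thr202/Tyr204) measured in lysates by AlphaLISA SureFire; IC50 from variable-slope fit, averaged over at least two measurements.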

[2] = Homo sapiens, NCI-H358, NCI-H358 SOS2 KO cells

Sequence of SOS1 and KRAS G12D (Q07889 564-1049, stated change not applied): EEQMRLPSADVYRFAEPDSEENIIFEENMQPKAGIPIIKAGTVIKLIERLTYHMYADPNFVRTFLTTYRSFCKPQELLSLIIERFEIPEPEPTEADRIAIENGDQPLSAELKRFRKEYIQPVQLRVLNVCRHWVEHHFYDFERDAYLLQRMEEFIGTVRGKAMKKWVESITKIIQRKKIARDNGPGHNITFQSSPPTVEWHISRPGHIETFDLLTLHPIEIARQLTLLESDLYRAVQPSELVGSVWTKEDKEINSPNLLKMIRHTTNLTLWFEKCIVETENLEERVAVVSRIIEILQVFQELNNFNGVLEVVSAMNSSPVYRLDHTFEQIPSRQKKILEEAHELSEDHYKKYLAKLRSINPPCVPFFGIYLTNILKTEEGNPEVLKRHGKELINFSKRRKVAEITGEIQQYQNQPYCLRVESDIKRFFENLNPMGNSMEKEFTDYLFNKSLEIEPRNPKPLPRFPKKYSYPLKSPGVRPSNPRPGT
Sequence of SOS1 and KRAS G12C (Q07889 564-1049, stated change not applied): as above
Sequence of CYP3A4 (P08684 whole entry): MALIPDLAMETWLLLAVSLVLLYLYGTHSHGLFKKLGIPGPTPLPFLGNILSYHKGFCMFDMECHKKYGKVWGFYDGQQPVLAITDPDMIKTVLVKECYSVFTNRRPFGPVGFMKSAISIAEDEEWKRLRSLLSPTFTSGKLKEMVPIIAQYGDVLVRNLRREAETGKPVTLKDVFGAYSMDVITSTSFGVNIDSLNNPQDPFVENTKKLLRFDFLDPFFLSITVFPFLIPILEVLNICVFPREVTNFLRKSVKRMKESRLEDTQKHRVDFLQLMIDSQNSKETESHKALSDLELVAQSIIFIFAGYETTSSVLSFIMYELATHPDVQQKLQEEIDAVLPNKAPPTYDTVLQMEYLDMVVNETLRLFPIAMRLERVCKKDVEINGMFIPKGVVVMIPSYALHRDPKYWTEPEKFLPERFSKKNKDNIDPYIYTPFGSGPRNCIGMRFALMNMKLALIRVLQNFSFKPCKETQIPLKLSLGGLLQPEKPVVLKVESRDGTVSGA
Sequence of P450 3A4 (P08684 whole entry): as above

| Structure (SMILES) | IC50 (SOS1 and KRAS G12D) [nM] | Hepatic clearance - QH[%] in human hepatocytes (human hepatocytes) [%] | IC50 (SOS1 and KRAS G12C) [nM] | inhibition at 30 min (CYP3A4) [%] | pIC50 (P450 3A4) | pIC50 [1, 2] | MBI inhibition % ctrl. [%] with MDZ (CYP3A4) [%] | pIC50 ([1]; NCI-H358 SOS2 KO cells) |
| --- | --- | --- | --- | --- | --- | --- | --- | --- |
| C[C@@H](NC(=O)c1cc(N2CCC(N3CCC[C@H](O)C3)CC2)c2ncnn2c1)c1cccc(C(F)F)c1F [Example E18] | 37 | 17 | 49 | 99 | < 4.30 | 7.27 |  |  |
| Cc1nnc2c(N3CCC4(CCCN4C)CC3)cc(C(=O)N[C@H](C)c3cccc(C(F)(F)F)c3F)cn12 [Example E79] | 14 | 8 | 20 | 90 | < 4.30 | 6.97 |  |  |
| C[C@@H](NC(=O)c1cc([C@H]2CC[C@H](N3CCC(F)C(O)C3)CC2)c2ncnn2c1)c1cccc(C(F)F)c1F (single isomer, unassigned) [Example trans-E61b] | 32 | 30 | 32 |  | < 4.30 |  | 101 | 6.86 |
| C[C@@H](NC(=O)c1cc(N2CCC(N3CC[C@@](C)(O)C3)CC2)c2ncnn2c1)c1cccc(C(F)F)c1F [Example E5] | 57 | 16 | 65 | 103 | < 4.30 | 6.49 |  |  |
| Cc1c([C@@H](C)NC(=O)c2cc(N3CCC4(CCCN4C)CC3)c3nnc(C)n3c2)cccc1C(F)(F)F [Example E80] | 27 | <4 | 37 | 88 | < 4.30 | 6.67 |  |  |
| C[C@@H](NC(=O)c1cc(N2CCC(N3CC4CC4(CO)C3)CC2)c2ncnn2c1)c1cccc(C(F)F)c1F (single isomer, unassigned) [Example cis-E21a] | 61 | 25 | 81 | 102 | < 4.30 | 6.67 |  |  |
| C[C@@H](NC(=O)c1cc(C2=CCC(N3CCC[C@H](O)C3)CC2)c2ncnn2c1)c1cccc(C(F)F)c1F (stereo partly drawn) [Example E63] | 27 | 23 | 31 | 94 | < 4.30 | 7.05 |  |  |
| C[C@@H](NC(=O)c1cc(N2CCC(N3CCCC(C)(O)C3)CC2)c2ncnn2c1)c1cccc(C(F)(F)F)c1F (single isomer, unassigned) [Example E47a] | 99 | 30 | 96 | 97 | < 4.30 | 6.79 |  |  |
| C[C@@H](NC(=O)c1cc([C@H]2CC[C@H](N3C[C@H](F)C[C@@H]3CO)CC2)c2ncnn2c1)c1cccc(C(F)F)c1F [Example E60] | 20 | 26 | 21 | 90 | < 4.30 | 6.54 |  |  |
| C[C@@H](NC(=O)c1cc([C@]2(O)CC[C@@H](N3CC[C@H](F)C3)CC2)c2ncnn2c1)c1cccc(C(F)(F)F)c1F [Example E71] | 79 | 7 | 79 | 94 | < 4.30 | 6.71 |  |  |
| C[C@@H](NC(=O)c1cc(N2CCC(N3CCCC3)CC2)c2ncnn2c1)c1cccc(C(F)(F)F)c1F [Example E48] | 60 | 27 | 69 | 92 | < 4.30 | 7.09 |  |  |
| C[C@@H](NC(=O)c1cc([C@H]2CC[C@H](N3CCC[C@H](O)C3)CC2)c2ncnn2c1)c1cccc(C(F)(F)F)c1F [Example E67] | 33 | 10 | 33 | 95 | < 4.30 | 7.34 |  |  |
| C[C@@H](O)CNC1CCN(c2cc(C(=O)N[C@H](C)c3cccc(C(F)(F)F)c3F)cn3ncnc23)CC1 [Example E39] | 54 | 43 | 53 | 75 | < 4.30 | 6.60 |  |  |
| C[C@@H](NC(=O)c1cc(N2CCC3(CCCN3C)CC2)c2ncnn2c1)c1cccc(C(F)(F)F)c1F [Example E37] | 21 | 25 | 31 | 90 | < 4.30 | 6.82 |  |  |
| C[C@@H](NC(=O)c1cc([C@]2(O)CC[C@@H](N3CC[C@@H](F)C3)CC2)c2ncnn2c1)c1cccc(C(F)F)c1F [Example E65] | 93 | 38 | 90 | 102 | < 4.30 | 6.78 |  |  |
| C[C@@H](NC(=O)c1cc(N2CCC(N3C[C@@H](O)[C@@H]3C)CC2)c2ncnn2c1)c1cccc(C(F)(F)F)c1F [Example E32] | 43 | 23 | 44 | 92 | < 4.30 | 6.57 |  |  |
| C[C@@H](NC(=O)c1cc(N2CCC3CCNC3C2)c2ncnn2c1)c1cccc(C(F)(F)F)c1F (single isomer, unassigned) [Example cis-E52b] | 70 | 14 | 71 | 98 | < 4.30 |  |  | 7.40 |
| C[C@@H](NC(=O)c1cc(N2CCC(N3C[C@H](O)C4(CC4)C3)CC2)c2ncnn2c1)c1cccc(C(F)(F)F)c1F [Example E28] | 70 | 23 | 70 | 90 | < 4.30 | 6.73 |  |  |
| C[C@@H](NC(=O)c1cc(N2CCC3(CCCCN3C)CC2)c2ncnn2c1)c1cccc(C(F)(F)F)c1F [Example E46] | 31 | 9 | 34 | 98 | < 4.30 | 6.79 |  |  |
| C[C@@H](NC(=O)c1cc(N2CCC(O)(C3CCCN3)CC2)c2ncnn2c1)c1cccc(C(F)F)c1F (single isomer, unassigned) [Example E38b] | 41 | 11 | 59 |  | < 4.30 |  | 86 | 6.66 |
| C[C@@H](NC(=O)c1cc(N2CCC(N3CC4CC4(CO)C3)CC2)c2ncnn2c1)c1cccc(C(F)F)c1F (single isomer, unassigned) [Example cis-E21b] | 82 | 38 | 78 |  | < 4.30 |  | 96 | 6.62 |
| C[C@@H](NC(=O)c1cc(N2CCC(N3CCCC(O)CC3)CC2)c2ncnn2c1)c1cccc(C(F)(F)F)c1F (single isomer, unassigned) [Example E43a] | 40 | 25 | 42 | 91 | < 4.30 |  |  | 7.34 |
| C[C@@H](NC(=O)c1cc(N2CCC(N3CCC[C@@H](O)C3)CC2)c2ncnn2c1)c1cccc(C(F)F)c1F [Example E22] | 49 | 19 | 48 | 100 | < 4.30 | 6.73 |  |  |
| C[C@@H]1C[C@H](O)CN1C1CCN(c2cc(C(=O)N[C@H](C)c3cccc(C(F)(F)F)c3F)cn3ncnc23)CC1 [Example E24] | 46 | 22 | 56 |  | < 4.30 |  | 99 | 6.49 |
